Among the data in patent US12275729B2 (Merck Sharp & Dohme LLC, priority 2017, dated 2025) are IC50 values, retold here.

Counter-ions that a name gives are not always drawn.

The target of assay [1] is T1, IDO1 (Homo sapiens, UniProt P14902). In words: IDO1 Cellular Assay in HeLa Cells Stimulated with IFNγ. In kind it is cell-based. The following applies: read-out: Hela IC50.
The target of assay [2] is T1, IDO1. Briefly: IDO1 Human Whole Blood Assay. In kind it is cell-based. Details: Human whole blood was drawn in sodium heparin coated tubes from healthy internal donors; from tissue; host or cells: human whole blood from healthy donors, stimulated with LPS and IFNγ. The following applies: LPS and IFNγ stimulated. The protocol:
IDO1 Human Whole Blood Assay
Compounds to be tested were serially diluted in ten 3-fold steps in DMSO starting from 10 mM. […] LPS and IFNγ was prepared in RPMI to a 10× of final conc. (1000 ng/mL), final concentration is 100 ng/mL.
Human whole blood was drawn in sodium heparin coated tubes from healthy internal donors. 240 μL of blood was transferred to each of the wells of a v-bottom 96 well plate. 30 μL of compound was transferred from intermediate dilution plate, and incubated for 15 min. 30 μL from stimulants was then transferred to blood and mixed thoroughly.
On day 2 isotope labeled standard of kynurenine and tryptophan was made in water at 1Ox concentration and 30 μL was added to the blood at […] final concentration. The assay plates were centrifuged at 300×G for 10 min with no brake to separate plasma from red blood cells. 60 μL of plasma samples was removed without disturbing red blood cells. Plasma was diluted with RPMI in 1:1 ratio and proteins were precipitated out with two volume of Acetonitrile. The plates were centrifuged at 4000×G for 60 min. 20 μL of supernatant was carefully transferred to a 384 well plate contain 40 μL of 0.1% formic acid in water and analyzed by LC/MS/MS.
LC/MS/MS analyses were performed using Thermo Fisher's LX4-TSQ Quantum Ultra system. This system consists of four Agilent binary high-performance liquid chromatography (HPLC) pumps and a TSQ Quantum Ultra triple quadrupole MS/MS instrument. For each sample, 5 μL were injected onto an Atlantis T3 column (2.1 mm×150 mm, […] particle size) from Waters. The mobile phase gradient pumped at 0.8 mL/min was used to elute the analytes from the column at 25° C. […] Mobile phase A consisted of 0.1% formic acid in water. Mobile phase B consisted of 0.1% of formic acid in acetonitrile. Data was acquired in positive mode using a HESI interface. The operational parameters for the TSQ Quantum Ultra instrument were a spray voltage of 4000 V, capillary temperature of 380° C., vaporizer temperature 400° C., shealth gas 60 arbitrary units, Aux gas 20 arbitrary units, tube lens 85 and collision gas 1.2 mTorr. […] The peak area was integrated by Xcalibur Quan software. The ratios between the kynurenine generated in the reaction and 2D6-Kynurenine spiked-in internal standard were used to generate percentage inhibition and IC50 values.

T1 sequence (P14902 whole entry): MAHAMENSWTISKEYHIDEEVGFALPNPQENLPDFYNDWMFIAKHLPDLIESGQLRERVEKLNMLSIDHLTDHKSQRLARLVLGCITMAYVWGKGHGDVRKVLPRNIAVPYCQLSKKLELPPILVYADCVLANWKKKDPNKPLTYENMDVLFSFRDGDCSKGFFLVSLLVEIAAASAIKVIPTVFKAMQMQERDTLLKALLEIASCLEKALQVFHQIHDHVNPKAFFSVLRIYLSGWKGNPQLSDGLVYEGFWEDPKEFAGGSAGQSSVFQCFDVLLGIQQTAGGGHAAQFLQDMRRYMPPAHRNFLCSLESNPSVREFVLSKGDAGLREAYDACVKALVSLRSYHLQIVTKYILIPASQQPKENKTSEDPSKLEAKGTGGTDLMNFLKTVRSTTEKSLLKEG

The IC50 is the concentration needed to halve the response being measured. Take `CC(C(=O)Nc1ccc(F)cc1)c1ccc2c(c1)CCCN2Cc1cccc(Cl)c1` (racemic) [Example 224, 2-{1-[(3-chlorophenyl)methyl]-1,2,3,4-tetrahydroquinolin-6-yl}-N-(4-fluorophenyl)propanamide]: the figures for the half-inhibitory concentration (IC50) in assay [1] (about 48 hours) and in assay [2] were 7.9 nM and 545 nM, respectively.
Turning to `Cc1nccc(N2CC(F)Cc3cc(C4(NC(=O)c5ccc(Cl)cc5)CC4)ccc32)n1` (racemic) [Example 437, 4-chloro-N-(1-(3-fluoro-1-(2-methylpyrimidin-4-yl)-1,2,3,4-tetrahydroquinolin-6-yl)cyclopropyl)benzamide, 2,2,2-trifluoroacetate salt], the results for the IC50 in assay [1] and in assay [2] were 1.82 nM and 16 nM, respectively.
`C[C@H](C(=O)Nc1ccc(F)cc1)c1ccc2c(c1)CCCN2C(=O)c1cccc(Cl)c1` (single isomer, unassigned) [Example 52]: the IC50 in assay [1] (about 48 hours) turned out to be 4.9 nM; in assay [2] it was 372 nM.
Consider `C[C@@H](C(=O)Nc1ccc(F)cc1)c1ccc2c(c1)CCCN2C(=O)c1cccc(Cl)c1` (single isomer, unassigned) [Example 53], for which the half-inhibitory concentration (IC50) in assay [1] (about 48 hours) was found to be 2.2 nM; in assay [2], 45 nM.
On to `C[C@@H](C(=O)Nc1ccc(F)cn1)c1ccc2c(c1)CCCN2C(=O)c1cccc(Cl)c1` (single isomer, unassigned) [Example 55], for which the IC50 in assay [1] (about 48 hours) worked out at 2.4 nM; in assay [2] it was 19 nM.
For `C[C@@H](C(=O)Nc1ccc(Cl)cc1)c1ccc2c(c1)CCCN2C(=O)c1cccc(Cl)c1` (single isomer, unassigned) [Example 57], the half-maximal inhibitory concentration (IC50) turned out to be 2.3 nM in assay [1] (about 48 hours) and 51 nM in assay [2].
The like results for `C[C@H](C(=O)Nc1ccc(F)cc1)c1ccc2c(c1)CCCN2C(=O)[C@H]1CCCCO1` (single isomer, unassigned) [Example 87] were, in that order, 2.1 nM and 22 nM.
On to `CC(NC(=O)c1ccc(F)cc1)c1ccc2c(c1)CCCN2C(CO)c1cccc(Cl)c1` (single isomer, unassigned) [Example 92], for which the IC50 in assay [1] (about 48 hours) is 6 nM; in assay [2] it was 378 nM.
`CC(NC(=O)c1ccc(F)cc1)c1ccc2c(c1)CCCN2C(CO)c1cccc(Cl)c1` (single isomer, unassigned) [Example 93]: the IC50 in assay [1] (about 48 hours) came out at 5.7 nM; in assay [2] it was 450 nM.
Take `O=C([C@@H]1CCCCO1)N1CCCc2cc(C3(C(=O)Nc4ccc(F)cc4)CCC3)ccc21` (single isomer, unassigned) [Example 105]: the IC50 in assay [1] (about 48 hours) was 1.9 nM; in assay [2] it was 61 nM.
In the case of `O=C([C@H]1CCCCO1)N1CCCc2cc(C3(C(=O)Nc4ccc(F)cc4)CCC3)ccc21` (single isomer, unassigned) [Example 106], the IC50 in assay [1] (about 48 hours) was 1.2 nM; in assay [2], 12 nM.
With `CC(NC(=O)c1ccc(Cl)cc1)c1ccc2c(n1)CCCN2C(=O)C1CC1` (single isomer, unassigned) [Example 125, 4-chloro-N-{1-[5-(cyclopropanecarbonyl)-5,6,7,8-tetrahydro-1,5-naphthyridin-2-yl]ethyl}benzamide], the figures for the IC50 in assay [1] (about 48 hours) and in assay [2] were 8.3 nM and 289 nM, respectively.
The matching figures for `CC(C(=O)Nc1ccc(F)cc1)c1ccc2c(c1)CCCN2Cc1cccc(Cl)c1` (single isomer, unassigned) [Example 225, 2-{1-[(3-chlorophenyl)methyl]-1,2,3,4-tetrahydroquinolin-6-yl}-N-(4-fluorophenyl)propanamide]: 4.7 nM and 149 nM.
As to `C[C@H](NC(=O)c1ccc(Cl)cc1)c1ccc2c(n1)OCCN2C(=O)c1cccc(Cl)c1` (single isomer, unassigned) [Example 254, 4-chloro-N-(1-(1-(3-chlorobenzoyl)-2,3-dihydro-1H-pyrido[2,3-b][1,4]oxazin-6-yl)ethyl)benzamide], the results for the IC50 in assay [1] (about 48 hours) and in assay [2] were 3.7 nM and 263 nM, respectively.
`CC(C(=O)Nc1ccc(Cl)cc1)c1ccc2c(c1)CC(F)CN2C(=O)c1cccc(Cl)c1` (single isomer, unassigned) [Example 256, 2-(1-(3-chlorobenzoyl)-3-fluoro-1,2,3,4-tetrahydroquinolin-6-yl)-N-(4-chlorophenyl)propanamide]: the IC50 in assay [1] (about 48 hours) is 2.37 nM; in assay [2], 50 nM.
Take `CC(C(=O)Nc1ccc(Cl)cc1)c1ccc2c(c1)CC(F)CN2C(=O)c1cccc(Cl)c1` (single isomer, unassigned) [Example 257, 2-(1-(3-chlorobenzoyl)-3-fluoro-1,2,3,4-tetrahydroquinolin-6-yl)-N-(4-chlorophenyl)propanamide]: the half-maximal inhibitory concentration (IC50) in assay [1] (about 48 hours) came to 1.34 nM; in assay [2] it was 35 nM.
Take `CC(C(=O)Nc1ccc(Cl)cc1)c1ccc2c(c1)CC(F)CN2C(=O)c1cccc(Cl)c1` (single isomer, unassigned) [Example 259, 2-(1-(3-chlorobenzoyl)-3-fluoro-1,2,3,4-tetrahydroquinolin-6-yl)-N-(4-chlorophenyl)propanamide]: the IC50 in assay [1] (about 48 hours) turned out to be 2.51 nM; in assay [2], 41 nM.
For the molecule `Cc1nccc(N2CCCc3nc(C4(C(=O)Nc5ccc(F)cc5)CC4(F)F)ccc32)n1` (single isomer, unassigned) [Example 421, 2,2-difluoro-N-(4-fluorophenyl)-1-(5-(2-methylpyrimidin-4-yl)-5,6,7,8-tetrahydro-1,5-naphthyridin-2-yl)cyclopropanecarboxamide], the IC50 in assay [1] turned out to be 2.64 nM; in assay [2], 65 nM.
On to `Cc1nccc(N2CCCc3nc(C4(C(=O)Nc5ccc(F)cc5)CC4(F)F)ccc32)n1` (single isomer, unassigned) [Example 422, 2,2-difluoro-N-(4-fluorophenyl)-1-(5-(2-methylpyrimidin-4-yl)-5,6,7,8-tetrahydro-1,5-naphthyridin-2-yl)cyclopropanecarboxamide], for which the IC50 in assay [1] was 1.7 nM; in assay [2], 12 nM.
For `CC(C(=O)Nc1ccc(F)cc1)c1ccc2c(n1)CCCN2C(=O)C1CCCO1` (stereo in doubt) [Example 162, N-(4-fluorophenyl)-2-{5-[(2R)-oxolane-2-carbonyl]-5,6,7,8-tetrahydro-1,5-naphthyridin-2-yl}propanamide], the 50% inhibitory concentration (IC50) was determined as 2.7 nM in assay [1] (about 48 hours) and 29 nM in assay [2].
On to `CC(C(=O)Nc1ccc(F)cc1)c1ccc2c(c1)CCCN2C(=O)c1cc(C(F)F)ccn1` (stereo not shown) [Example 38, 2-{1-[4-(difluoromethyl)pyridine-2-carbonyl]-1,2,3,4-tetrahydroquinolin-6-yl}-N-(4-fluorophenyl)propanamide], for which the IC50 in assay [1] (about 48 hours) worked out at 5.7 nM; in assay [2], 36 nM.
For `CC(C(=O)Nc1ccc(F)cc1)c1ccc2c(c1)CCCN2C(=O)c1cnn(C)c1` (stereo not shown) [Example 48, N-(4-fluorophenyl)-2-[1-(1-methyl-1H-pyrazole-4-carbonyl)-1,2,3,4-tetrahydroquinolin-6-yl]propanamide], the half-maximal inhibitory concentration (IC50) in assay [1] (about 48 hours) came to 15.8 nM; in assay [2], 321 nM.
On to `CC(C(=O)Nc1ccc(Cl)cc1)c1ccc2c(c1)CCCN2C(=O)c1cccc(Cl)c1` (stereo not shown) [Example 51, 2-[1-(3-chlorobenzene-1-carbonyl)-1,2,3,4-tetrahydroquinolin-6-yl]-N-(4-chlorophenyl)propanamide], for which the IC50 in assay [1] (about 48 hours) stood at 2 nM; in assay [2], 96 nM.
The like results for `Cc1nc(C(=O)N2CCCc3cc([C@H](C)C(=O)Nc4ccc(F)cn4)ccc32)no1` [Example 65, (2S)-N-(5-fluoropyridin-2-yl)-2-[1-(5-methyl-1,2,4-oxadiazole-3-carbonyl)-1,2,3,4-tetrahydroquinolin-6-yl]propanamide] were, in that order, 1.9 nM and 2610 nM.
For `CC(C(=O)Nc1ccc(F)cc1)c1ccc2c(c1)CCCN2C(=O)C1CC1(F)F` (stereo not shown) [Example 67, 2-[1-(2,2-difluorocyclopropane-1-carbonyl)-1,2,3,4-tetrahydroquinolin-6-yl]-N-(4-fluorophenyl)propanamide], the IC50 in assay [1] (about 48 hours) amounted to 4.1 nM; in assay [2], 150 nM.
Consider `C[C@H](C(=O)Nc1ccc(F)cc1)c1ccc2c(c1)CCCN2C(=O)C1CCOCC1` [Example 81, (2S)-N-(4-fluorophenyl)-2-[1-(oxane-4-carbonyl)-1,2,3,4-tetrahydroquinolin-6-yl]propanamide], for which the values for the IC50 in assay [1] (about 48 hours) and in assay [2] were 4.8 nM and 99 nM, respectively.
